{"source": "patent US20030189958A1", "about": "(priority 2000, published 2003)", "key": {"[1]": {"tested_on": "Phytophthora infestans", "type": "in vivo", "details": "solo compound"}, "[2]": {"tested_on": "Plasmopara viticola", "test": "Activity against Plasmopara viticola on grape (cv Gutedel) leaf discs (Example B-2)", "details": "solo compound", "from_the_text": "The action to be expected E for a given active ingredient combination obeys the so-called COLBY formula and can be calculated as follows (COLBY, S. R. “Calculating synergistic and antagonistic responses of herbicide combination”. Weeds, Vol. 15, pages 20-22; 1967):\nAccording to COLBY, the expected (additive) action of active ingredients A)+B) using p+q ppm of active ingredient is [formula]\nIf the action actually observed (O) is greater than the expected action (E), then the action of the combination is super-additive, i.e. there is a synergistic effect. In mathematical terms the synergism factor SF corresponds to O/E. In the agricultural practice an SF of ≧1.2 indicates significant improvement over the purely complementary addition of activities (expected activity), while an SF of ≦0.9 in the practical application routine signals a loss of activity compared to the expected activity.\nThe efficacy of the mixtures against Plasmopara viticola may be determined in micro scale on grape leaf discs in 24-well plates (repeated on 4 discs per variation). […] The inoculation is done by spraying the sporangial suspension (70 000 sp/ml) on the lower leaf side. The infected (sporulating) area of each leaf disc is measured 7-8 days after incubation (under standard conditions in a climatic chamber +18° C., 12 hours day/night cycle) as a %-value of the total leaf disc area. The activity is calculated as a %-value relative to the disease rate on fully infected, untreated grape leave discs. The expected fungicide interactions of the components in the mixtures (E-values) are calculated according to the method of Colby."}}, "note": "Where two headings read alike, the source gives them in different places.", "data": [{"molecule": "O=[N+]([O-])c1cc(C(F)(F)F)c(Cl)c([N+](=O)[O-])c1Nc1ncc(C(F)(F)F)cc1Cl", "note": "[III, fluazinam]", "values": [{"measurement": "observed activity (O in %)", "setting": "[1]; 0.025 ppm", "value": 0, "unit": "%"}, {"measurement": "observed activity (O in %)", "setting": "[1]; 0.05 ppm", "value": 0, "unit": "%"}, {"measurement": "observed activity (O in %)", "setting": "[1]; 0.5 ppm", "value": 29, "unit": "%"}]}, {"molecule": "CO/C=C(/C(=O)OC)c1ccccc1Oc1cc(Oc2ccccc2C#N)ncn1", "note": "[VIa, azoxystrobin]", "values": [{"measurement": "observed activity (O in %)", "setting": "[2]; 0.01 ppm", "value": 0, "unit": "%"}]}, {"molecule": "mancozeb [IV]", "values": [{"measurement": "observed activity (O in %)", "setting": "[2]; 0.25 ppm", "value": 3, "unit": "%"}, {"measurement": "observed activity (O in %)", "setting": "[2]; 0.5 ppm", "value": 15, "unit": "%"}]}, {"molecule": "COc1ccc(C(=CC(=O)N2CCOCC2)c2ccc(Cl)cc2)cc1OC", "note": "[IX, dimethomorph]", "values": [{"measurement": "observed activity (O in %)", "setting": "[2]; 0.01 ppm", "value": 0, "unit": "%"}, {"measurement": "observed activity (O in %)", "setting": "[2]; 0.05 ppm", "value": 14, "unit": "%"}, {"measurement": "observed activity (O in %)", "setting": "[2]; 1 ppm", "value": 62, "unit": "%"}]}, {"molecule": "N#Cc1c(Cl)c(Cl)c(Cl)c(C#N)c1Cl", "note": "[V, chlorothalonil]", "values": [{"measurement": "observed activity (O in %)", "setting": "[1]; 0.5 ppm", "value": 0, "unit": "%"}]}, {"molecule": "CCNC(=O)NC(=O)C(C#N)=NOC", "note": "[XI, cymoxanil]", "values": [{"measurement": "observed activity (O in %)", "setting": "[2]; 0.01 ppm", "value": 0, "unit": "%"}, {"measurement": "observed activity (O in %)", "setting": "[2]; 0.025 ppm", "value": 8, "unit": "%"}]}, {"molecule": "COCC(=O)N(c1c(C)cccc1C)[C@H](C)C(=O)OC", "note": "[IIa, metalaxyl-M]", "values": [{"measurement": "observed activity (O in %)", "setting": "[2]; 0.025 ppm", "value": 3, "unit": "%"}, {"measurement": "observed activity (O in %)", "setting": "[2]; 0.05 ppm", "value": 5, "unit": "%"}, {"measurement": "observed activity (O in %)", "setting": "[2]; 0.1 ppm", "value": 9, "unit": "%"}]}]}
